# Values quoted from earlier work as cited in US9617305B2 (priority 2011, dated 2017).
# Where a SMILES comes first, the peptide text is derived from it. Bridges are numbered along the chain shown (N, C = ends).
# Conditions: after oral administration at therapeutic dose levels
compound,measurement,value
"C[C@@H]1NC(=O)[C@@H]2CCCN2C(=O)[C@H](CC(N)=O)NC(=O)[C@@H]2CSSC[C@H](N)C(=O)N[C@H]3CSSC[C@H](NC1=O)C(=O)N[C@@H]([C@@H](C)O)C(=O)NCC(=O)N[C@H](C(=O)N[C@@H](Cc1ccc(O)cc1)C(=O)O)CSSC[C@H](NC(=O)[C@H](Cc1ccc(O)cc1)NC(=O)[C@H](CCC(=O)O)NC3=O)C(=O)N2 [linaclotide, Linaclotide] (H-CCEYCCNPACTGCY-OH; disulfide 1-6, 2-10, 5-13)",levels of linaclotide seen systemically,no detectable levels
